Reference: patent US6472418B1, “Non-peptide NK1 receptors antagonists” (Warner-Lambert Company, priority 1998, dated 2002)

These compounds were tested against T1, Human NK1 Receptor (Homo sapiens, UniProt P25103) (assay: In Vitro Human NK1 Receptor Binding Assay ([125I]Bolton-Hunter substance P displacement, IM9 cells)). Conditions: human NK1 receptor, IM9 cells, [125I]Bolton-Hunter substance P; read-out: IC50 (nM) hNK1.
T1 construct: endogenous in cells; host or cells: Human lymphoma IM9 cells (whole cells)
T1 sequence (P25103 whole entry): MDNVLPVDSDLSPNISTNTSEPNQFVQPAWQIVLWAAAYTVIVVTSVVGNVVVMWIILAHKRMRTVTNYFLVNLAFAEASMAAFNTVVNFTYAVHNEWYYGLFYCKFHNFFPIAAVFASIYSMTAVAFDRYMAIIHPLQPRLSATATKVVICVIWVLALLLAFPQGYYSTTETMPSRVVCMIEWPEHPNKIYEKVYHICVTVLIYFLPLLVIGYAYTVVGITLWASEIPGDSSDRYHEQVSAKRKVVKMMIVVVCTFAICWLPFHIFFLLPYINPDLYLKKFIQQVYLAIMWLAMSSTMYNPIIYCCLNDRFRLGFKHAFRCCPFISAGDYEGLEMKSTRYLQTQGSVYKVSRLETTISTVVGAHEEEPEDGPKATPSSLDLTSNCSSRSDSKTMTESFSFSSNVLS
How it was run: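 Test compounds competed with 0.05-0.1 nM [125I]Bolton-Hunter substance P for binding to intact IM9 cells over 50 min at 21° C, pH 7.4 buffer with MnCl2 and peptidase inhibitors. […] [Sar9, Met(O2)11] substance P gave non-specific binding. Bound counts were measured after filtration and fitted iteratively.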

IC50 [nM]	Compound
> 10000	CC(Cc1c[nH]c2ccccc12)(NCc1cc2ccccc2o1)C(=O)NCCc1c[nH]cn1 (stereo not shown) [compound 97, 2-[(Benzofuran-2-ylmethyl)-amino]-N-[2-(1H-imidazol-4-yl)-ethyl]-3-(1H-indol-3-yl)-2-methyl-propionamide]
> 10000	CC(Cc1c[nH]c2ccccc12)(NCc1cc2ccccc2o1)C(=O)NCC(c1ccccc1)c1ccccc1 (stereo not shown) [compound 98, 2-[(Benzofuran-2-ylmethyl)-amino]-N-(2,2-diphenyl-ethyl)-3-(1H-indol-3-yl)-2-methyl-propionamide]
> 10000	CC(Cc1c[nH]c2ccccc12)(NCc1cc2ccccc2o1)C(=O)NCCN1CCCC1=O (stereo not shown) [compound 99, 2-[(Benzofuran-2-ylmethyl)-amino]-3-(1H-indol-3-yl)-2-methyl-N-[2-(2-oxo-pyrrolidin-1-yl)-ethyl]-propionamide]
390	CC(Cc1c[nH]c2ccccc12)(NCc1cc2ccccc2o1)C(=O)NCc1ccc([N+](=O)[O-])o1 (stereo not shown) [compound 100, 2-[(Benzofuran-2-ylmethyl)-amino]-3-(1H-indol-3-yl)-2-methyl-N-(5-nitro-furan-2-ylmethyl)-propionamide]
> 10000	Cc1[nH]cnc1CCNC(=O)C(C)(Cc1c[nH]c2ccccc12)NCc1cc2ccccc2o1 (stereo not shown) [compound 101, 2-[(Benzofuran-2-ylmethyl)-amino]-3-(1H-indol-3-yl)-2-methyl-N-[2-(5-methyl-1H-imidazol-4-yl)-ethyl]-propionamide]
> 10000	CN(C)c1cccc(C2(CNC(=O)C(C)(Cc3c[nH]c4ccccc34)NCc3cc4ccccc4o3)CCCC2)c1 (stereo not shown) [compound 102, 2-[(Benzofuran-2-ylmethyl)-amino]-N-[1-(3-dimethylamino-phenyl)-cyclopentylmethyl]-3-(1H-indol-3-yl)-2-methyl-propionamide]
74	CC(Cc1c[nH]c2ccccc12)(NCc1cc2ccccc2o1)C(=O)NCc1nc2ccccc2[nH]1 (stereo not shown) [compound 103, 2-[(Benzofuran-2-ylmethyl)-amino]-N-(1H-benzoimidazol-2-ylmethyl)-3-(1H-indol-3-yl)-2-methyl-propionamide]
> 10000	CC(Cc1c[nH]c2ccccc12)(NCc1cc2ccccc2o1)C(=O)NCC1(c2ccccc2)OCCO1 (stereo not shown) [compound 105]
4630	CN1Cc2ccccc2CC1CNC(=O)C(C)(Cc1c[nH]c2ccccc12)NCc1cc2ccccc2o1 (stereo not shown) [compound 106, 2-[(Benzofuran-2-ylmethyl)-amino]-3-(1H-indol-3-yl)-2-methyl-N-(2-methyl-1,2,3,4-tetrahydro-isoquinolin-3-ylmethyl)-propionamide]
4150	CC(Cc1c[nH]c2ccccc12)(NCc1cc2ccccc2o1)C(=O)NC1CC1c1ccccc1 (stereo not shown) [compound 107, 2-[(Benzofuran-2-ylmethyl)-amino]-3-(1H-indol-3-yl)-2-methyl-N-(2-phenyl-cyclopropyl)-propionamide]
4570	CC(Cc1c[nH]c2ccccc12)(NCc1cc2ccccc2o1)C(=O)NCC1Cc2ccccc2CN1 (stereo not shown) [compound 108, 2-[(Benzofuran-2-ylmethyl)-amino]-3-(1H-indol-3-yl)-2-methyl-N-(1,2,3,4-tetrahydro-isoquinolin-3-ylmethyl)-propionamide]
1140	CC(Cc1c[nH]c2ccccc12)(NCc1cc2ccccc2o1)C(=O)NCC1(c2ccccc2)CC1 (stereo not shown) [compound 110, 2-[(Benzofuran-2-ylmethyl)-amino]-3-(1H-indol-3-yl)-2-methyl-N-(1-phenyl-cyclopropylmethyl)-propionamide]
> 10000	CC(Cc1c[nH]c2ccccc12)(NCc1cc2ccccc2o1)C(=O)NC1CCc2ccccc2C1 (stereo not shown) [compound 111, 2-[(Benzofuran-2-ylmethyl)-amino]-3-(1H-indol-3-yl)-2-methyl-N-(1,2,3,4-tetrahydro-naphthalen-2-yl)-propionamide]
12	CC(Cc1c[nH]c2ccccc12)(NCc1cc2ccccc2o1)C(=O)NCc1cccc([N+](=O)[O-])c1 (stereo not shown) [compound 112, 2-[(Benzofuran-2-ylmethyl)-amino]-3-(1H-indol-3-yl)-2-methyl-N-(3-nitro-benzyl)-propionamide]
463	CC(Cc1c[nH]c2ccccc12)(NCc1cc2ccccc2o1)C(=O)NC1Cc2ccccc2C1 (stereo not shown) [compound 113, 2-[(Benzofuran-2-ylmethyl)-amino]-N-indan-2-yl-3-(1H-indol-3-yl)-2-methyl-propionamide]
128	CCC(NC(=O)C(C)(Cc1c[nH]c2ccccc12)NCc1cc2ccccc2o1)c1cccs1 (stereo not shown) [compound 114, 2-[(Benzofuran-2-ylmethyl)-amino]-3-(1H-indol-3-yl)-2-methyl-N-(1-thiophen-2-yl-propyl)-propionamide]
154	CC(Cc1c[nH]c2ccccc12)(NCc1cc2ccccc2o1)C(=O)NCCc1ccco1 (stereo not shown) [compound 115, 2-[(Benzofuran-2-ylmethyl)-amino]-N-(2-furan-2-yl-ethyl)-3-(1H-indol-3-yl)-2-methyl-propionamide]

IC50 [nM]	Compound
> 10000	CC(Cc1c[nH]c2ccccc12)(NCc1cc2ccccc2o1)C(=O)NCC1(O)CCCCC1 (stereo not shown) [compound 116, 2-[(Benzofuran-2-ylmethyl)-amino]-N-(1-hydroxy-cyclohexylmethyl)-3-(1H-indol-3-yl)-2-methyl-propionamide]
> 10000	CC(Cc1c[nH]c2ccccc12)(NCc1cc2ccccc2o1)C(=O)NCC1(c2ccco2)CCC1 (stereo not shown) [compound 117, 2-[(Benzofuran-2-ylmethyl)-amino]-N-(1-furan-2-yl-cyclobutylmethyl)-3-(1H-indol-3-yl)-2-methyl-propionamide]
45	CC(NC(=O)C(C)(Cc1c[nH]c2ccccc12)NCc1cc2ccccc2o1)c1ccc(Cl)s1 (stereo not shown) [compound 118, 2-[(Benzofuran-2-ylmethyl)-amino]-N-[1-(5-chloro-thiophen-2-yl)-ethyl]-3-(1H-indol-3-yl)-2-methyl-propionamide]
89	CC(Cc1c[nH]c2ccccc12)(NCc1cc2ccccc2o1)C(=O)NCc1ccc([N+](=O)[O-])cc1 (stereo not shown) [compound 119, 2-[(Benzofuran-2-ylmethyl)-amino]-3-(1H-indol-3-yl)-2-methyl-N-(4-nitro-benzyl)-propionamide]
2650	CC(Cc1n[nH]c2ccccc12)NC(=O)C(C)(Cc1c[nH]c2ccccc12)NCc1cc2ccccc2o1 (stereo not shown) [compound 120, 2-[(Benzofuran-2-ylmethyl)-amino]-N-[2-(1H-indazol-3-yl)-1-methyl-ethyl]-3-(1H-indol-3-yl)-2-methyl-propionamide]
654	CC(Cc1c[nH]c2ccccc12)(NCc1cc2ccccc2o1)C(=O)NCCn1cccc1 (stereo not shown) [compound 121, 2-[(Benzofuran-2-ylmethyl)-amino]-3-(1H-indol-3-yl)-2-methyl-N-(2-pyrrol-1-yl-ethyl)-propionamide]
442	CC(NC(=O)C(C)(Cc1c[nH]c2ccccc12)NCc1cc2ccccc2o1)c1cc(Cl)sc1Cl (stereo not shown) [compound 122, 2-[(Benzofuran-2-ylmethyl)-amino]-N-[1-(2,5-dichloro-thiophen-3-yl)-ethyl]-3-(1H-indol-3-yl)-2-methyl-propionamide]
> 10000	CC(Cc1c[nH]c2ccccc12)(NCc1cc2ccccc2o1)C(=O)NCCN1CCC2CCCCC21 (stereo not shown) [compound 123, 2-[(Benzofuran-2-ylmethyl)-amino]-3-(1H-indol-3-yl)-2-methyl-N-[2-(octahydro-indol-1-yl)-ethyl]-propionamide]
92	CC(NC(=O)C(C)(Cc1c[nH]c2ccccc12)NCc1cc2ccccc2o1)c1ccc([N+](=O)[O-])cc1 (stereo not shown) [compound 124, 2-[(Benzofuran-2-ylmethyl)-amino]-3-(1H-indol-3-yl)-2-methyl-N-[1-(4-nitro-phenyl)-ethyl]-propionamide]
> 10000	CC(Cc1c[nH]c2ccccc12)(NCc1cc2ccccc2o1)C(=O)NCCN1CCCCC1 (stereo not shown) [compound 125, 2-[(Benzofuran-2-ylmethyl)-amino]-3-(1H-indol-3-yl)-2-methyl-N-(2-piperidin-1-yl-ethyl)-propionamide]
6790	CC1(CNC(=O)C(C)(Cc2c[nH]c3ccccc23)NCc2cc3ccccc3o2)OCCO1 (stereo not shown) [compound 126, 2-[(Benzofuran-2-ylmethyl)-amino]-3-(1H-indol-3-yl)-2-methyl-N-(2-methyl-[1,3]dioxolan-2-ylmethyl)-propionamide]
191	CC(Cc1c[nH]c2ccccc12)(NCc1cc2ccccc2o1)C(=O)NCc1ccco1 (stereo not shown) [compound 127, 2-[(Benzofuran-2-ylmethyl)-amino]-N-furan-2-ylmethyl-3-(1H-indol-3-yl)-2-methyl-propionamide]
> 10000	CC(Cc1c[nH]c2ccccc12)(NCc1cc2ccccc2o1)C(=O)NCCN1CCOCC1 (stereo not shown) [compound 128, 2-[(Benzofuran-2-ylmethyl)-amino]-3-(1H-indol-3-yl)-2-methyl-N-(2-morpholin-4-yl-ethyl)-propionamide]
43	Cc1cccc(CNC(=O)C(C)(Cc2c[nH]c3ccccc23)NCc2cc3ccccc3o2)c1 (stereo not shown) [compound 129, 2-[(Benzofuran-2-ylmethyl)-amino]-3-(1H-indol-3-yl)-2-methyl-N-(3-methyl-benzyl)-propionamide]
163	CC(Cc1c[nH]c2ccccc12)(NCc1cc2ccccc2o1)C(=O)NC1CCc2ccccc21 (stereo not shown) [compound 130, 2-[(Benzofuran-2-ylmethyl)-amino]-N-indan-1-yl-3-(1H-indol-3-yl)-2-methyl-propionamide]
> 10000	CC(Cc1c[nH]c2ccccc12)(NCc1cc2ccccc2o1)C(=O)NCC(C)(C)N1CCCCC1 (stereo not shown) [compound 131, 2-[(Benzofuran-2-ylmethyl)-amino]-3-(1H-indol-3-yl)-2-methyl-N-(2-methyl-2-piperidin-1-yl-propyl)-propionamide]

Compound	IC50 [nM]
CC(Cc1c[nH]c2ccccc12)(NCc1cc2ccccc2o1)C(=O)NCc1cc(Cl)sc1Cl (stereo not shown) [compound 109, 2-[(Benzofuran-2-ylmethyl)-amino]-N-(2,5-dichloro-thiophen-3-ymethyl)-3-(1H-indol-3-yl)-2-methyl-propionamide]	279
